Read-outs that look alike come from different tables or passages of the source.
Assays:
ETA Receptor = target: T1, ETA Receptor (Rattus norvegicus, UniProt P26684); assay: [125I]ET-1 binding to membranes from MMQ cells (ETA receptor binding assay, Table 4); details: for inhibition at 1 µM: read-out: % Inhibition of ETA at 1 μM
T1 construct: endogenous in cells; host or cells: MMQ rat pituitary cells (membranes)
T1 sequence (P26684 21-426): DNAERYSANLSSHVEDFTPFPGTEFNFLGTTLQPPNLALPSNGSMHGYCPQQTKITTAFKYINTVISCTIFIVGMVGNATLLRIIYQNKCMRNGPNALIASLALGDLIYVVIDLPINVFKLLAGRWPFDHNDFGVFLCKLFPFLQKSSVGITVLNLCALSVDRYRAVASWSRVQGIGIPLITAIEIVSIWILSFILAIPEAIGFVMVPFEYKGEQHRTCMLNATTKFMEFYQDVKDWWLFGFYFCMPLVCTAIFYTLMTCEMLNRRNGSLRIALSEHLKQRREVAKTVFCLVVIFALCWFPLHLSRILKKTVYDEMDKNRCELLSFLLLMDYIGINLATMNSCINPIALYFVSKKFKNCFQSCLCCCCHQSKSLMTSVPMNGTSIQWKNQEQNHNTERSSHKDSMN

[1] = test system: ET-1-induced phosphatidylinositol hydrolysis in MMQ cells; assay: Determination of ET-1-induced phosphatidylinositol (PI) hydrolysis in MMQ cells; format: cell-based, rat; details: 1 nM ET-1 challenge, read-out: IC50 (inhibition of ET-induced increase in PI turnover)
Experimental: MMQ cells (0.4×10^6 cells/mL) were labeled with 10 μCi/mL of [^3H]myo-inositol in RPMI for 16 hours. The cells were washed with PBS, then incubated with Buffer A containing protease inhibitors and 10 mM LiCl for 60 minutes. The cells were then incubated with test compounds for 5 minutes, and then challenged with 1 nM ET-1. ET-1 challenge was terminated by the addition of 1.5 mL of 1:2 (v/v) chloroform-methanol. Total inositol phosphates were extracted after adding chloroform and water to give final proportions of 1:1:0.9 (v/v/v) chloroform-methanol-water as described by Berridge (Biochem. J. 206 587–595 (1982)). The upper aqueous phase (1 mL) was retained and a small portion (100 μL) was counted. The rest of the aqueous sample was analyzed by batch chromatography using anion-exchange resin AG1-X8 (Bio-Rad). […] The results of the above study clearly indicate that the compounds act as functional ET antagonists.

[2] = target: T2, ETA receptor in MMQ cells (rET-A) (Rattus norvegicus, UniProt P26684); assay: ETA/ETB selectivity: (125I)ET-1 competition binding, ETA assay in MMQ cell membranes (rET-A)
T2 construct: endogenous in cells; host or cells: MMQ rat pituitary cells (membranes)
T2 sequence (P26684 21-426): T1 sequence (P26684 21-426)
Experimental: (§1) The mixture was centrifuged at 1000×g for 10 min. The supernatant was collected and centrifuged at 60,000×g for 60 min. The precipitate was resuspended in 20 mM Tris, pH 7.4 containing protease inhibitor and centrifuged again. The final membrane pellet was resuspended in 20 mM Tris, pH 7.4 containing protease inhibitors and stored at −80° C. until used. Protein content was determined by the Bio-Rad dye-binding protein assay.
(§2) Binding assays were performed in 96-well microtiter plates pretreated with 0.1% BSA. […] After incubation, unbound ligands were separated from bound ligands by a vacuum filtration method using glass-fiber filter strips in PHD cell harvesters (Cambridge Technology, Inc., MA), washing the filter strips three times with saline (1 mL). Nonspecific binding was determined in the presence of 1 μM ET-1. IC50 values are calculated using an average of at least two separate determinations.

[3] = target: T3, ETB receptors of porcine cerebellar tissues (pET-B) (Sus scrofa, UniProt P35463); assay: ETA/ETB selectivity: (125I)ET-3 competition binding, ETB assay in porcine cerebellum membranes (pET-B)
T3 construct: porcine cerebellar tissues (known to contain ETB receptors); from tissue; host or cells: porcine cerebellum (membranes)
T3 sequence (P35463 27-443): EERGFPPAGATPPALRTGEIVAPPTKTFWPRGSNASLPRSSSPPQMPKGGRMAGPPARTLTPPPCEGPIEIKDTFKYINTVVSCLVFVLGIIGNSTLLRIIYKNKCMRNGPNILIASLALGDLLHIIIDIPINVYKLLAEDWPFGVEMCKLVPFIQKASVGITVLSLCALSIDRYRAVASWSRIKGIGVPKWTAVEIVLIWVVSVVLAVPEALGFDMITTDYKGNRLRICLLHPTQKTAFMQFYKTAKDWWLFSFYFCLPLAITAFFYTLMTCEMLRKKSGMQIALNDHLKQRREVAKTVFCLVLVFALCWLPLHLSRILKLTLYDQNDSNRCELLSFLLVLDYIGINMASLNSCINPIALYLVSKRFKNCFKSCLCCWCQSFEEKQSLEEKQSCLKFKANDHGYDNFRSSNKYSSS
Experimental: as §1, §2

human ETA receptor = target: T4, human ETA receptor (Homo sapiens, UniProt P25101); assay: ETA/ETB selectivity: (125I)ET-1 competition binding, CHO cells transfected with human ETA receptor (hET-A)
T4 construct: expressed in transfected cells; host or cells: CHO cells, permanently transfected
T4 sequence (P25101 21-427): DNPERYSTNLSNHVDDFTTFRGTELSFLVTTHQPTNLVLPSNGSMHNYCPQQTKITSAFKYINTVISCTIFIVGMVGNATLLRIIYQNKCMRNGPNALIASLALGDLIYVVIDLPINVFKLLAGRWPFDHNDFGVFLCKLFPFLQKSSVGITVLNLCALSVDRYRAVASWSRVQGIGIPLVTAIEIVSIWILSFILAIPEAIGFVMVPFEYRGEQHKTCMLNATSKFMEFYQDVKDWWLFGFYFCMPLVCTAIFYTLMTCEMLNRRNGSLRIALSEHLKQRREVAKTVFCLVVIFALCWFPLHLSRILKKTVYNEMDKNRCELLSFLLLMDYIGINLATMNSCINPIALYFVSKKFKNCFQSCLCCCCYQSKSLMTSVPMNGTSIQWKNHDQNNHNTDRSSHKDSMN
Experimental: as §1, §2

human ETB receptor = target: T5, human ETB receptor (Homo sapiens, UniProt P24530); assay: ETA/ETB selectivity: (125I)ET-3 competition binding, CHO cells transfected with human ETB receptor (hET-B); details: CHO cells transfected with human ETB receptor; 0.1 nM (125I)ET-3; read-out: hET-B IC50
T5 construct: expressed in transfected cells; host or cells: CHO cells, permanently transfected
T5 sequence (P24530 27-442): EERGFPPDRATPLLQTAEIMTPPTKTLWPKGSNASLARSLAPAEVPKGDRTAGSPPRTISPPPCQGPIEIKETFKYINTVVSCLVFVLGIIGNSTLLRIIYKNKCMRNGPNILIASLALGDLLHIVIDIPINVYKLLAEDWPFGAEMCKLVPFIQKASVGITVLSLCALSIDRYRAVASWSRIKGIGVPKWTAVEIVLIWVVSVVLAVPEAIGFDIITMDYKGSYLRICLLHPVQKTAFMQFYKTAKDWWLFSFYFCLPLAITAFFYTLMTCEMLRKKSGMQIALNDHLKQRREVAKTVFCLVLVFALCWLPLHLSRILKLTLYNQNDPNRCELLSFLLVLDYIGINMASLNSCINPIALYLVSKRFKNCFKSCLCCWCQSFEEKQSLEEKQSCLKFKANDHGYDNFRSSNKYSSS
Experimental: MMQ cells, porcine cerebellar tissues (known to contain ETB receptors) and chinese hamster ovary cells (CHO) permanently transfected with the human ETA or ETB receptor were homogenized in 25 ml of 10 mM Hepes (pH 7.4) containing 0.25 M sucrose and a protease inhibitor [50 mM EDTA, 0.1 mM PMSF, 5 μg/ml Pepstatin A, and 0.025% Bacitracin] using a micro ultrasonic cell disrupter. The mixture was centrifuged at 1000×g for 10 min. The supernatant was collected and centrifuged at 60,000×g for 60 min. The precipitate was resuspended in 20 mM Tris, pH 7.4 containing protease inhibitor and centrifuged again. The final membrane pellet was resuspended in 20 mM Tris, pH 7.4 containing protease inhibitors and stored at −80° C. until used. Protein content was determined by the Bio-Rad dye-binding protein assay.
Binding assays were performed in 96-well microtiter plates pretreated with 0.1% BSA. Membranes prepared from cells were diluted 100 fold in Buffer B (20 mM Tris, 100 mM NaCl, 10 mM MgCl2, pH 7.4, with 0.2% BSA, 0.1 mM PMSF, 5 μg/mL Pepstatin A, 0.025% bacitracin, and 50 mM EDTA) to a final concentration of 0.2 mg/mL of protein. In competition binding studies, membranes (0.02 mg) were incubated with 0.1 nM of (^125I)ET-1 (for ETA assay in MMQ or CHO cells transfected with human ETA receptor) or (^125I)ET-3 (for ETB assay in porcine cerebellum or CHO cells transfected with human ETB receptor) in Buffer B (final volume: 0.2 mL) in the presence of increasing concentrations of the test compound for 3 hours at 25° C. After incubation, unbound ligands were separated from bound ligands by a vacuum filtration method using glass-fiber filter strips in PHD cell harvesters (Cambridge Technology, Inc., MA), washing the filter strips three times with saline (1 mL). Nonspecific binding was determined in the presence of 1 μM ET-1. IC50 values are calculated using an average of at least two separate determinations.

[4] = test compound at 1 μM, 0.1 nM [125I]ET-1, MMQ cell membranes, 4 hours at 25° C.
[5] = CHO cells transfected with human ETA receptor, 0.1 nM (125I)ET-1, read-out: hET-A IC50
[6] = MMQ cell membranes, 0.1 nM (125I)ET-1, read-out: rET-A IC50

| % Inhibition of ETA at 1 μM (ETA Receptor; [4]) [%] | IC50 [1] [nM] | SMILES | IC50 (human ETA receptor; [5]) [nM] | IC50 (human ETB receptor) [nM] | other results |
| --- | --- | --- | --- | --- | --- |
| 93.6 | 2 | CCCCN(C)C(=O)CN1CC(c2ccc3c(c2)OCO3)C(C(=O)O)C1c1ccc(OC)cc1OCOC (stereo not drawn) [Example 31B, trans,trans-2-(4-Methoxy-2-methoxymethoxyphenyl)-4-(1,3-benzodioxol-5-yl)-1-(N-methyl-N-butylaminocarbonylmethyl)-pyrrolidine-3-carboxylic acid] | – | – | – |
| – | – | CCCCN(CCCC)C(=O)CN1CC(c2ccc3c(c2)OCO3)C(C(=O)O)C1CCc1ccccn1 (centres unmarked) [compound 519] | 0.23 | 19000 | inhibition at 1 µM (ETA Receptor): 99.1%; IC50 [2]: 0.38 nM; IC50 [3]: 14000 nM |
| 96.1 | 1.2 | CCCN(CCN1CC(c2ccc3c(c2)OCO3)C(C(=O)O)C1c1ccc(OC)cc1)S(=O)(=O)c1ccc(OC(F)(F)F)cc1 (stereo not drawn) [Example 300, trans,trans-2-(4-Methoxyphenyl)-4-(1,3-benzodioxol-5-yl)-1-(2-(N-propyl-N-(4-trifluoromethoxybenzenesulfonyl)amino)ethyl)-pyrrolidine-3-carboxylic acid] | – | – | – |
| 100.0 | 9.8 | CCCCN(C(=O)CN1CC(c2ccc3c(c2)OCO3)C(C(=O)O)C1c1ccc(OC)cc1)c1ccccc1 (stereo not drawn) [Example 291, trans,trans-2-(4-Methoxyphenyl)-4-(1,3-benzodioxol-5-yl)-1-(N-butyl-N-phenylaminocarbonylmethyl)-pyrrolidine-3-carboxylic acid] | – | – | – |
| 96.3 | 0.4 | COc1ccc(C2C(C(=O)O)C(c3ccc4c(c3)OCO4)CN2CC(=O)N(C)CC(C)C)cc1 (stereo not drawn) [Example 48, trans,trans-2-(4-Methoxyphenyl)-4-(1,3-benzodioxol-5-yl)-1-(N-methyl-N-isobutylaminocarbonylmethyl)-pyrrolidine-3-carboxylic acid] | – | – | – |
| 95.1 | 0.5 | CCCN(CCC)C(=O)CN1CC(c2ccc3c(c2)OCO3)C(C(=O)O)C1c1ccc(OC)cc1 (stereo not drawn) [Example 47, trans,trans-2-(4-Methoxyphenyl)-4-(1,3-benzodioxol-5-yl)-1-(N,N-di(n-propyl)aminocarbonylmethyl)-pyrrolidine-3-carboxylic acid] | – | – | – |
| 90.4 | 2 | COc1ccc(C2C(C(=O)O)C(c3ccc4c(c3)OCO4)CN2CC(=O)N(C)C2CCCCC2)cc1 (stereo not drawn) [Example 46, trans,trans-2-(4-Methoxyphenyl)-4-(1,3-benzodioxol-5-yl)-1-(N-methyl-N-cyclohexylaminocarbonylmethyl)-pyrrolidine-3-carboxylic acid] | – | – | – |
| – | – | CCCCN(CCCN)C(=O)CN1CC(c2ccc3c(c2)OCO3)C(C(=O)O)C1c1ccc(OC)cc1 (centres unmarked) [compound 526] | 17 | 7400 | inhibition at 1 µM (ETA Receptor; [4]): 100%; IC50 [2, 6]: 42 nM |
| 80.0 | 1 | CCCCN(C)C(=O)CN1CC(c2ccc3c(c2)OCO3)C(C(=O)O)C1c1ccc(OC)cc1 (stereo not drawn) [Example 30, trans,trans-2-(4-Methoxyphenyl)-4-(1,3-benzodioxol-5-yl)-1-(N-methyl-N-butylaminocarbonylmethyl)-pyrrolidine-3-carboxylic acid] | – | – | – |
| – | – | CCCC(CCC)N(C(=O)CN1C[C@H](c2ccc3c(c2)OCO3)[C@@H](C(=O)O)[C@@H]1CC(C)(C)CCC)c1ccc(F)c(C)c1 [compound 511] | 0.6 | 15000 | inhibition at 1 µM (ETA Receptor; [4]): 99.2%; IC50 [2, 6]: 0.81 nM |
| – | – | CCCCN(CCCC)C(=O)CN1CC(c2ccc3c(c2)OCO3)C(C(=O)O)C1CCN1CCCC1=O (centres unmarked) [compound 512] | 0.58 | ≥ 60000 | inhibition at 1 µM (ETA Receptor; [4]): 98.9%; IC50 [2]: 0.42 nM; IC50 ([3]; porcine cerebellum membranes, 0.1 nM (125I)ET-3, read-out: pET-B IC50): > 80000 nM |
| – | – | CC=CC(C)(C)CC1C(C(=O)O)C(c2ccc3c(c2)OCO3)CN1CC(=O)N(CCCC)CCCC (centres unmarked) [compound 552] | – | > 96000 | inhibition at 1 µM ([2]; 1 μM test compound, MMQ cell membranes): 97.3%; IC50 (human ETA receptor): 1 nM |

From patent publication US7208517B1, “Endothelin antagonists” (Abbott Labortories, priority 1994, dated 2007)
